The test system of one series is Puccinia recondita. Kind of series: Example D: in vivo preventive test (brown rust on wheat). The conditions noted are these: 264 h, 500 ppm of tested compound, preventive spray, evaluated 11 days after inoculation, read-out: efficacy. On the procedure: Solvent: 5% by volume of dimethyl sulfoxide • 10% by volume of acetone Emulsifier: 1 μL of Tween® 80 per mg of active ingredient The tested compounds were made soluble and homogenized in a mixture of dimethyl sulfoxide/acetone/Tween® 80 and then diluted in water to the desired concentration. The young plants of wheat were treated by spraying the tested compound prepared as described above. Control plants were treated only with an aqueous solution of acetone/dimethyl sulfoxide/Tween® 80. After 24 hours, the plants were contaminated by spraying the leaves with an aqueous suspension of Puccinia recondita spores. The contaminated wheat plants were incubated for 24 hours at 20° C. and at 100% relative humidity and then for 10 days at 20° C. and at 70-80% relative humidity. The test was evaluated 11 days after the inoculation. 0% means an efficacy which corresponds to that of the control plants while an efficacy of 100% means that no disease was observed.

The subject of the next series is Phakopsora pachyrhizi. Kind of series: Example F: in vivo preventive test (soybeans), DMSO/acetone/Tween 80. The conditions noted are these: 288 h, 500 ppm of tested compound, preventive spray, soybean, evaluated 12 days after inoculation, read-out: efficacy. On the procedure:
Solvent: 5% by volume of dimethyl sulfoxide • 10% by volume of acetone
Emulsifier: 1 μL of Tween® 80 per mg of active ingredient
The tested compounds were made soluble and homogenized in a mixture of dimethyl sulfoxide/acetone/Tween® 80 and then diluted in water to the desired concentration.
The young plants of wheat were treated by spraying the tested compound prepared as described above. Control plants were treated only with an aqueous solution of acetone/dimethyl sulfoxide/Tween® 80.
After 24 hours, the plants were contaminated by spraying the leaves with an aqueous suspension of Phakospora pachyrhizi spores. The contaminated soybean plants were incubated for 24 hours at 24° C. and at 100% relative humidity and then for 11 days at 24° C. and at 70-80% relative humidity.
The test was evaluated 12 days after the inoculation. 0% means an efficacy which corresponds to that of the control plants while an efficacy of 100% means that no disease was observed.

Series [1] concerns Colletotrichum lindemuthianum. Kind of series: Example B: in vitro cell test, spore germination and mycelium growth in liquid culture. Format: cell-based. The conditions noted are these: 144 h, 20 ppm of tested compound, 6 days incubation, read-out: efficacy (inhibition of fungal growth). On the procedure: • Solvent: dimethyl sulfoxide Culture medium: 14.6 g anhydrous D-glucose (VWR), • 7.1 g mycological peptone (Oxoid), • 1.4 g granulated yeast extract (Merck), QSP 1 liter Inoculum: spore suspension The tested compounds were solubilized in dimethyl sulfoxide and the solution used to prepare the required range of concentrations. The final concentration of dimethyl sulfoxide used in the assay was ≤1%. A spore suspension of Colletotrichum lindemuthianum was prepared and diluted to the desired spore density. The compounds were evaluated for their ability to inhibit spore germination and mycelium growth in liquid culture assay. The compounds were added in the desired concentration to the culture medium with spores. After 6 days incubation, fungi-toxicity of compounds was determined by spectrometric measurement of mycelium growth. Inhibition of fungal growth was determined by comparing the absorbance values in wells containing the tested compounds with the absorbance in control wells without tested compounds.

Series [2] can be described thus: Log P by HPLC on reversed phase columns, method [a] (EEC directive 79/831 Annex V.A8). The format is physicochemical. The conditions noted are these: reversed phase HPLC column, read-out: logP. The gist of the method: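 Log P calibrated with C3–C16 straight-chain alkan-2-ones of known Log P, interpolating linearly between retention times. Method per EEC 79/831 Annex V.A8: reversed-phase LC-UV in the acidic range, water/0.1% formic acid and acetonitrile gradient from 10% to 95% acetonitrile.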

The subject of another series is Alternaria brassicae. Nature of the series: Example E: in vivo preventive test (cabbage). Particulars: 144 h, 500 ppm of tested compound, preventive spray, evaluated 6 days after inoculation, read-out: efficacy. The procedure: Solvent: 5% by volume of dimethyl sulfoxide • 10% by volume of acetone Emulsifier: 1 μL of Tween® 80 per mg of active ingredient The tested compounds were made soluble and homogenized in a mixture of Dimethyl sulfoxide/Acetone/Tween® 80 and then diluted in water to the desired concentration. The young plants of cabbage were treated by spraying the tested compound prepared as described above. Control plants were treated only with an aqueous solution of Acetone/Dimethyl sulfoxide/Tween® 80. After 24 hours, the plants were contaminated by spraying the leaves with an aqueous suspension of Alternaria brassicae spores. The contaminated cabbage plants were incubated for 6 days at 20° C. and at 100% relative humidity. The test was evaluated 6 days after the inoculation. 0% means an efficacy which corresponds to that of the control plants while an efficacy of 100% means that no disease was observed.

The mark [3] stands for this setting: log P determined according to method [a] (HPLC on reversed phase columns).
The mark [4] stands for this setting: method [a], HPLC on reversed phase columns.

The record followed here is patent publication US20220144815A1, “1,3,4-OXADIAZOLES AND THEIR DERIVATIVES AS NEW ANTIFUNGAL AGENTS” (Bayer Aktiengesellschaft, priority 2018, published 2022).

Read-outs that look alike come from different tables or passages of the source.

A word on the inhibition of growth: it is the relative decrease from the control value, in per cent. On to `C#CC(Nc1ncc(-c2nnc(C(F)F)o2)cn1)c1ccccc1` (racemic) [I.118, 5-[5-(difluoromethyl)-1,3,4-oxadiazol-2-yl]-N-[(1RS)-1-phenylprop-2-yn-1-yl]pyrimidin-2-amine], for which the pest or weed control at 500 µg/mL in the series with Puccinia recondita fell in the range of 80 to 89%; with Phakopsora pachyrhizi, 90 to 100%. Further, the inhibition of growth at 20 µg/mL in series [1] lay within 90 to 100%. Also, the chromatographic logP in series [2] (setting [3]) was determined as 2.86.

Take `CCC(Nc1ncc(-c2nnc(C(F)F)o2)cn1)c1ccccc1` (racemic) [I.122, 5-[5-(difluoromethyl)-1,3,4-oxadiazol-2-yl]-N-[(1RS)-1-phenylpropyl]pyrimidin-2-amine]: the pest or weed control at 500 µg/mL with Puccinia recondita and in the series on Phakopsora pachyrhizi was 90 to 100% throughout. The inhibition of growth at 20 µg/mL in series [1] lay in the range of 90 to 100%. The chromatographic logP in series [2] (setting [3]) stood at 3.16.

For `CC(Nc1ncc(-c2nnc(C(F)F)o2)cn1)c1ccc(F)cc1` (racemic) [I.125, 5-[5-(difluoromethyl)-1,3,4-oxadiazol-2-yl]-N-[(1RS)-1-(4-fluorophenyl)ethyl]pyrimidin-2-amine], the pest or weed control at 500 µg/mL in the series with Puccinia recondita and in the series with Phakopsora pachyrhizi was 90 to 100% each time. Besides, the inhibition of growth at 20 µg/mL in series [1] was 80 to 89%. The chromatographic logP in series [2] (setting [3]) stood at 2.89.

On to `CC(Oc1ncc(-c2nnc(C(F)F)o2)cn1)c1ccc(F)cc1` (racemic) [I.127, 5-[5-(difluoromethyl)-1,3,4-oxadiazol-2-yl]-2-{[(1RS)-1-(4-fluorophenyl)ethyl]oxy}pyrimidine], for which the pest or weed control at 500 µg/mL lay within 70 to 79% with Puccinia recondita and 90 to 100% in the series with Phakopsora pachyrhizi. Also, the chromatographic logP in series [2] (setting [3]) was 3.13.

As to `FC(F)c1nnc(-c2cnc(NC(c3ccccc3)C3CC3)nc2)o1` (racemic) [I.136, N—[(RS)-cyclopropyl(phenyl)methyl]-5-[5-(difluoromethyl)-1,3,4-oxadiazol-2-yl]pyrimidin-2-amine], the pest or weed control at 500 µg/mL is 80 to 89% in the series on Puccinia recondita and 90 to 100% in the series with Phakopsora pachyrhizi. In series [1], the inhibition of growth at 20 µg/mL fell in the range of 80 to 89%. The chromatographic logP in series [2] (setting [3]) was found to be 3.14.

For the molecule `CON(c1ncc(-c2nnc(C(F)F)o2)cn1)C(C)c1ccccc1` (racemic) [I.147, N-{5-[5-(difluoromethyl)-1,3,4-oxadiazol-2-yl]pyrimidin-2-yl}-O-methyl-N-[(1RS)-1-phenylethyl]hydroxylamine], the pest or weed control at 500 µg/mL in the series with Alternaria brassicae lay within 90 to 100%; in the series on Phakopsora pachyrhizi, 80 to 89%. Moreover, the chromatographic logP in series [2] (setting [3]) came out at 3.37.

Turning to `FC(F)c1nnc(-c2ccc(Nc3ncccn3)cc2)o1` [I.013, N-{4-[5-(difluoromethyl)-1,3,4-oxadiazol-2-yl]phenyl}pyrimidin-2-amine], the pest or weed control at 500 µg/mL in the series on Alternaria brassicae lay within 90 to 100%. Moreover, in series [1], the inhibition of growth at 20 µg/mL is 90 to 100%.

`Fc1ccccc1Nc1ccc(-c2nnc(C(F)F)o2)cc1` [I.017, N-{4-[5-(difluoromethyl)-1,3,4-oxadiazol-2-yl]phenyl}-2-fluoroaniline]: the pest or weed control at 500 µg/mL in the series with Alternaria brassicae was 80 to 89%. For the same molecule, the inhibition of growth at 20 µg/mL in series [1] lay within 90 to 100%.

Consider `CN(C(=O)c1ccc(-c2nnc(C(F)(F)F)o2)cc1)c1ccccc1` [I.026, N-methyl-N-phenyl-4-[5-(trifluoromethyl)-1,3,4-oxadiazol-2-yl]benzamide], for which, in the series on Puccinia recondita, the pest or weed control at 500 µg/mL lay within 80 to 89%.

With `COCCNc1ncc(-c2nnc(C(F)F)o2)cn1` [I.068, 5-[5-(difluoromethyl)-1,3,4-oxadiazol-2-yl]-N-(2-methoxyethyl)pyrimidin-2-amine], in the series with Alternaria brassicae, the pest or weed control at 500 µg/mL lay in the range of 70 to 79%. For the same molecule, in series [1], the inhibition of growth at 20 µg/mL was 90 to 100%.

For the molecule `Fc1ccccc1Nc1ncc(-c2nnc(C(F)F)o2)cn1` [I.093, 5-[5-(difluoromethyl)-1,3,4-oxadiazol-2-yl]-N-(2-fluorophenyl)pyrimidin-2-amine], the pest or weed control at 500 µg/mL with Puccinia recondita and in the series with Phakopsora pachyrhizi was 90 to 100% in each case.

`CN(Nc1ncc(-c2nnc(C(F)F)o2)cn1)c1ccccc1` [I.108, 5-[5-(difluoromethyl)-1,3,4-oxadiazol-2-yl]-2-(2-methyl-2-phenylhydrazino)pyrimidine]: in the series on Puccinia recondita, the pest or weed control at 500 µg/mL was 70 to 79%. For the same molecule, the chromatographic logP in series [2] (setting [3]) was 2.23.

As to `ON(Cc1ccccc1)c1ncc(-c2nnc(C(F)F)o2)cn1` [I.110, N-benzyl-5-[5-(difluoromethyl)-1,3,4-oxadiazol-2-yl]-N-hydroxypyrimidin-2-amine], the pest or weed control at 500 µg/mL with Alternaria brassicae and with Phakopsora pachyrhizi was 90 to 100% each time. In addition, the inhibition of growth at 20 µg/mL in series [1] lay in the range of 90 to 100%. In series [2] (setting [3]), the chromatographic logP is 2.23.

Consider `FC(F)c1nnc(-c2cnc(OC3(c4ccccc4)CC3)nc2)o1` [I.120, 5-[5-(difluoromethyl)-1,3,4-oxadiazol-2-yl]-2-[(1-phenylcyclopropyl)oxy]pyrimidine], for which the pest or weed control at 500 µg/mL in the series on Puccinia recondita was in the range of 70 to 79%; with Phakopsora pachyrhizi, 90 to 100%. Also, in series [1], the inhibition of growth at 20 µg/mL was 70 to 79%. Moreover, the chromatographic logP in series [2] (setting [3]) came out at 2.95.

In the case of `FC(F)c1nnc(-c2cnc(NC3(c4ccccn4)CC3)nc2)o1` [I.121, 5-[5-(difluoromethyl)-1,3,4-oxadiazol-2-yl]-N-[1-(pyridin-2-yl)cyclopropyl]pyrimidin-2-amine], the pest or weed control at 500 µg/mL in the series with Puccinia recondita is 70 to 79%; in the series on Phakopsora pachyrhizi, 90 to 100%. Moreover, the chromatographic logP in series [2] (setting [3]) came to 0.93.

For the molecule `Fc1ccccc1Nc1ncc(-c2nnc(C(F)(F)Cl)o2)cn1` [I.131, 5-{5-[chloro(difluoro)methyl]-1,3,4-oxadiazol-2-yl}-N-(2-fluorophenyl)pyrimidin-2-amine], the pest or weed control at 500 µg/mL in the series on Alternaria brassicae lay within 90 to 100%. Further, the inhibition of growth at 20 µg/mL in series [1] was in the range of 90 to 100%. Besides, the chromatographic logP in series [2] (setting [3]) came out at 3.26.

In the case of `COc1ccccc1C1(Nc2ncc(-c3nnc(C(F)F)o3)cn2)CC1` [I.155, 5-[5-(difluoromethyl)-1,3,4-oxadiazol-2-yl]-N-[1-(2-methoxyphenyl)cyclopropyl]pyrimidin-2-amine], the pest or weed control at 500 µg/mL with Puccinia recondita lay in the range of 80 to 89%; in the series with Phakopsora pachyrhizi, 90 to 100%. In addition, the chromatographic logP in series [2] (setting [3]) was 3.06.

For the molecule `Fc1ccccc1C1(Nc2ncc(-c3nnc(C(F)F)o3)cn2)CCCC1` [I.171, 5-[5-(difluoromethyl)-1,3,4-oxadiazol-2-yl]-N-[1-(2-fluorophenyl)cyclopentyl]pyrimidin-2-amine], the pest or weed control at 500 µg/mL in the series with Alternaria brassicae lay in the range of 80 to 89%; in the series with Phakopsora pachyrhizi it was 70 to 79%. Besides, in series [1], the inhibition of growth at 20 µg/mL was in the range of 70 to 79%. For the same molecule, in series [2] (setting [4]), the chromatographic logP came to 3.74.

`Fc1cccc(C2(Nc3ncc(-c4nnc(C(F)F)o4)cn3)CCCC2)c1` [I.172, 5-[5-(difluoromethyl)-1,3,4-oxadiazol-2-yl]-N-[1-(3-fluorophenyl)cyclopentyl]pyrimidin-2-amine]: the pest or weed control at 500 µg/mL with Alternaria brassicae lay in the range of 80 to 89%. Also, the inhibition of growth at 20 µg/mL in series [1] is 70 to 79%. For the same molecule, the chromatographic logP in series [2] (setting [4]) was 3.6.

On to `COC(=O)c1ccc(C2(Nc3ncc(-c4nnc(C(F)F)o4)cn3)CC2)cc1` [I.180, methyl 4-[1-({5-[5-(difluoromethyl)-1,3,4-oxadiazol-2-yl]pyrimidin-2-yl}amino)cyclopropyl]benzoate], for which the pest or weed control at 500 µg/mL in the series with Puccinia recondita lay within 70 to 79%. Further, the chromatographic logP in series [2] (setting [4]) was 2.51.
